{"source": "paper PMC8185074", "about": "“Anchor extension: a structure-guided approach to design cyclic peptides targeting enzyme active sites” (Nature Communications, 2021)", "assay_type_in_all_cases": "biochemical", "key": {"HDAC8": {"molecular_target": "T1, HDAC8 (Homo sapiens, UniProt Q9BY41)", "T1 construct": "purchased Reaction Biology Corporation (assay run by the CRO)", "T1 sequence (Q9BY41 1-377)": "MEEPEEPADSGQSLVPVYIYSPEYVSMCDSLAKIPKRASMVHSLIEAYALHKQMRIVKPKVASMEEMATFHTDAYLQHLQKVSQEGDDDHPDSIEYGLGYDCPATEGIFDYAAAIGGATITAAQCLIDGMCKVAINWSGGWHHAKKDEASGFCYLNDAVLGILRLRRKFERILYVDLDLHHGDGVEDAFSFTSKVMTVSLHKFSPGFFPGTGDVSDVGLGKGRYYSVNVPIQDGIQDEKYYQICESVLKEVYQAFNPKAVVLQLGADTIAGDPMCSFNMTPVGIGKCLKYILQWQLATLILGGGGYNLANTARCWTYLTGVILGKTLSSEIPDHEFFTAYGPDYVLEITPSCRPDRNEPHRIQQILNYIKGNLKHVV", "test": "HDAC8 inhibition, full IC50 measurement (Reaction Biology; fluorogenic p53 peptide RHKK(Ac)AMC)", "conditions": "t1/t2 replicates", "method_in_brief": "(§1)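 The reaction was a 1 h, 30 °C incubation of enzyme, acoustically added peptide and 50 μM p53-derived AMC substrate in pH 8.0 Tris buffer with NaCl, KCl, MgCl2, 1 mg/ml BSA and 1% DMSO. Duplicate values were averaged.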"}, "HDAC3": {"molecular_target": "T2, HDAC3 (Homo sapiens, UniProt O15379)", "T2 construct": "purchased Reaction Biology Corporation (assay run by the CRO)", "T2 sequence (O15379 whole entry)": "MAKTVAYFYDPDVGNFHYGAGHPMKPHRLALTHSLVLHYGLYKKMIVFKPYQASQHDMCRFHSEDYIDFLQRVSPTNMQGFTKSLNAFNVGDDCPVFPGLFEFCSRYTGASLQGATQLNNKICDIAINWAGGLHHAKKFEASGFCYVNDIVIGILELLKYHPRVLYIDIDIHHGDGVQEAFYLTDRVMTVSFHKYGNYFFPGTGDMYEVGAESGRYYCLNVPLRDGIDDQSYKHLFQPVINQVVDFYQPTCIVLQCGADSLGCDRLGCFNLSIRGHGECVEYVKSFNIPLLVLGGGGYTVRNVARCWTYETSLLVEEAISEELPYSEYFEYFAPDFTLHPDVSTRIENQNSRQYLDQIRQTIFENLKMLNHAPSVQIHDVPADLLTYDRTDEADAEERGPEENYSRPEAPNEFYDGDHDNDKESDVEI", "T2 sequence (Q9Y618 395-489 partner limits assumed)": "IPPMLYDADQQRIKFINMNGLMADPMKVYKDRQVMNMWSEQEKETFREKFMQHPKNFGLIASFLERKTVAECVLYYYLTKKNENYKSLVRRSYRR", "test": "HDAC3 inhibition, full IC50 measurement (Reaction Biology; fluorogenic p53 peptide RHKK(Ac)AMC)", "method_in_brief": "as §1"}, "HDAC6": {"molecular_target": "T3, HDAC6 (Homo sapiens, UniProt Q9UBN7)", "T3 construct": "purchased Reaction Biology Corporation (assay run by the CRO)", "T3 sequence (Q9UBN7 1-1215)": "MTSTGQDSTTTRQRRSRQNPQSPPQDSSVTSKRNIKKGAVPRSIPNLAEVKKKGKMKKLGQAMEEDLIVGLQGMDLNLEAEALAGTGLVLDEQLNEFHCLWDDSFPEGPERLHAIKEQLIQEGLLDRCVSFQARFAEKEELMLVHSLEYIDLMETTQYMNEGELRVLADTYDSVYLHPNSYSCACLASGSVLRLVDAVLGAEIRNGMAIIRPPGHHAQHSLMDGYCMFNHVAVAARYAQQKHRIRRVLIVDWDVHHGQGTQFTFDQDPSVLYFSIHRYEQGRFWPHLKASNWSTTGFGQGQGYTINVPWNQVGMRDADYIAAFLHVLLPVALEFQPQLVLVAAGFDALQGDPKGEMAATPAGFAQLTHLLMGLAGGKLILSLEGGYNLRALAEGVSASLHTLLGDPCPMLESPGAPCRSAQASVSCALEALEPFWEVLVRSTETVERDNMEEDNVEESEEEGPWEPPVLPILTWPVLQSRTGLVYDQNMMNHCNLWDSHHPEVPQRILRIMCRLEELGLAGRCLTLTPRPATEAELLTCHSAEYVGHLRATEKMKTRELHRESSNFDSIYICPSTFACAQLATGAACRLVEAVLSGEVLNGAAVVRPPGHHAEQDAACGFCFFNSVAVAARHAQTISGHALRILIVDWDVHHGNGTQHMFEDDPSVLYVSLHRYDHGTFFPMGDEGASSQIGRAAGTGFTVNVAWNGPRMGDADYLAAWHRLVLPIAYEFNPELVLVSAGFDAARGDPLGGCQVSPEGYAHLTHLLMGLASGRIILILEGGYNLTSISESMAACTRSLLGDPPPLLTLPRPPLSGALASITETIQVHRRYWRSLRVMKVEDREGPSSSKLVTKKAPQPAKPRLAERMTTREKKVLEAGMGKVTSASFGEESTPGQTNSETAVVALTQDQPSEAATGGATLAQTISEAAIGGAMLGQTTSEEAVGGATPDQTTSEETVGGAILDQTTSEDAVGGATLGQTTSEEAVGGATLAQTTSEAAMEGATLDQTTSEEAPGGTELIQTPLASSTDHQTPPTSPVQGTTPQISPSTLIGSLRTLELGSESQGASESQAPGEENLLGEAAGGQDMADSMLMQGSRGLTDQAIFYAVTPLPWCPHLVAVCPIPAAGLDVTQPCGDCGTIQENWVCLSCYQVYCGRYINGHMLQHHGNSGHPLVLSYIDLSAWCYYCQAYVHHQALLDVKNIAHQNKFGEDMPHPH", "test": "HDAC6 inhibition, full IC50 measurement (Reaction Biology; fluorogenic p53 peptide RHKK(Ac)AMC)", "method_in_brief": "as §1"}}, "note": "Peptide text beside a SMILES is read from it."}
{"smiles": "CC(C)C[C@H]1NC(=O)[C@H](Cc2c[nH]c3ccccc23)NC(=O)[C@H](CCCCCS)NC(=O)[C@@H](Cc2ccc(O)cc2)NC(=O)[C@@H](C(C)C)NC(=O)[C@H](Cc2c[nH]cn2)NC(=O)CNC(=O)CNC(=O)[C@@H](CO)NC1=O", "note": "[des2.2.0, SHA-Trp-dLeu-dSer-Gly-Gly-His-dVal-dTyr] (HELM PEPTIDE1{G.G.H.[dV].[dY].[O=C([C@H](CCCCCS)N[*:1])[*:2]].W.[dL].[dS]}$PEPTIDE1,PEPTIDE1,1:R1-9:R2$$$V2.0)", "values": [{"measurement": "HDAC8 activity raw data (signal)", "setting": "HDAC8; peptide conc. 1.00E-05 M, listed as des2.2.0_t1", "value": 365553}, {"measurement": "HDAC8 activity raw data (signal)", "setting": "HDAC8; peptide conc. 1.00E-05 M, listed as des2.2.0_t2", "value": 330727}, {"measurement": "HDAC8 activity raw data (signal)", "setting": "HDAC8; peptide conc. 1.11E-06 M, listed as des2.2.0_t1", "value": 850929}, {"measurement": "HDAC8 activity raw data (signal)", "setting": "HDAC8; peptide conc. 1.11E-06 M, listed as des2.2.0_t2", "value": 824009}, {"measurement": "HDAC8 activity raw data (signal)", "setting": "HDAC8; peptide conc. 1.23E-07 M, listed as des2.2.0_t1", "value": 979654}, {"measurement": "HDAC8 activity raw data (signal)", "setting": "HDAC8; peptide conc. 1.23E-07 M, listed as des2.2.0_t2", "value": 1006503}, {"measurement": "HDAC8 activity raw data (signal)", "setting": "HDAC8; peptide conc. 1.37E-08 M, listed as des2.2.0_t1", "value": 1072008}, {"measurement": "HDAC8 activity raw data (signal)", "setting": "HDAC8; peptide conc. 1.37E-08 M, listed as des2.2.0_t2", "value": 1101244}, {"measurement": "HDAC8 activity raw data (signal)", "setting": "HDAC8; peptide conc. 1.52E-09 M, listed as des2.2.0_t1", "value": 927307}, {"measurement": "HDAC8 activity raw data (signal)", "setting": "HDAC8; peptide conc. 1.52E-09 M, listed as des2.2.0_t2", "value": 984830}, {"measurement": "HDAC8 activity raw data (signal)", "setting": "HDAC8; peptide conc. 3.33E-06 M, listed as des2.2.0_t1", "value": 572630}, {"measurement": "HDAC8 activity raw data (signal)", "setting": "HDAC8; peptide conc. 3.33E-06 M, listed as des2.2.0_t2", "value": 528648}, {"measurement": "HDAC8 activity raw data (signal)", "setting": "HDAC8; peptide conc. 3.70E-07 M, listed as des2.2.0_t1", "value": 865883}, {"measurement": "HDAC8 activity raw data (signal)", "setting": "HDAC8; peptide conc. 3.70E-07 M, listed as des2.2.0_t2", "value": 851036}, {"measurement": "HDAC8 activity raw data (signal)", "setting": "HDAC8; peptide conc. 4.12E-08 M, listed as des2.2.0_t1", "value": 959123}, {"measurement": "HDAC8 activity raw data (signal)", "setting": "HDAC8; peptide conc. 4.12E-08 M, listed as des2.2.0_t2", "value": 1003485}, {"measurement": "HDAC8 activity raw data (signal)", "setting": "HDAC8; peptide conc. 4.57E-09 M, listed as des2.2.0_t1", "value": 938538}, {"measurement": "HDAC8 activity raw data (signal)", "setting": "HDAC8; peptide conc. 4.57E-09 M, listed as des2.2.0_t2", "value": 927098}, {"measurement": "HDAC8 activity raw data (signal)", "setting": "HDAC8; peptide conc. 5.08E-10 M, listed as des2.2.0_t1", "value": 862623}, {"measurement": "HDAC8 activity raw data (signal)", "setting": "HDAC8; peptide conc. 5.08E-10 M, listed as des2.2.0_t2", "value": 898356}, {"measurement": "HDAC3 activity raw data (signal)", "setting": "HDAC3; Conc. 1.00E-05 M, t1", "value": 556301}, {"measurement": "HDAC3 activity raw data (signal)", "setting": "HDAC3; Conc. 1.00E-05 M, t2", "value": 606764}, {"measurement": "HDAC3 activity raw data (signal)", "setting": "HDAC3; Conc. 1.11E-06 M, t1", "value": 913376}, {"measurement": "HDAC3 activity raw data (signal)", "setting": "HDAC3; Conc. 1.11E-06 M, t2", "value": 1016072}, {"measurement": "HDAC3 activity raw data (signal)", "setting": "HDAC3; Conc. 1.23E-07 M, t1", "value": 993017}, {"measurement": "HDAC3 activity raw data (signal)", "setting": "HDAC3; Conc. 1.23E-07 M, t2", "value": 1391457}, {"measurement": "HDAC3 activity raw data (signal)", "setting": "HDAC3; Conc. 1.37E-08 M, t1", "value": 1020645}, {"measurement": "HDAC3 activity raw data (signal)", "setting": "HDAC3; Conc. 1.37E-08 M, t2", "value": 1085089}, {"measurement": "HDAC3 activity raw data (signal)", "setting": "HDAC3; Conc. 1.52E-09 M, t1", "value": 1012899}, {"measurement": "HDAC3 activity raw data (signal)", "setting": "HDAC3; Conc. 1.52E-09 M, t2", "value": 1059045}, {"measurement": "HDAC3 activity raw data (signal)", "setting": "HDAC3; Conc. 3.33E-06 M, t1", "value": 841514}, {"measurement": "HDAC3 activity raw data (signal)", "setting": "HDAC3; Conc. 3.33E-06 M, t2", "value": 795799}, {"measurement": "HDAC3 activity raw data (signal)", "setting": "HDAC3; Conc. 3.70E-07 M, t1", "value": 980314}, {"measurement": "HDAC3 activity raw data (signal)", "setting": "HDAC3; Conc. 3.70E-07 M, t2", "value": 1161998}, {"measurement": "HDAC3 activity raw data (signal)", "setting": "HDAC3; Conc. 4.12E-08 M, t1", "value": 1033280}, {"measurement": "HDAC3 activity raw data (signal)", "setting": "HDAC3; Conc. 4.12E-08 M, t2", "value": 1094012}, {"measurement": "HDAC3 activity raw data (signal)", "setting": "HDAC3; Conc. 4.57E-09 M, t1", "value": 1032533}, {"measurement": "HDAC3 activity raw data (signal)", "setting": "HDAC3; Conc. 4.57E-09 M, t2", "value": 1050723}, {"measurement": "HDAC3 activity raw data (signal)", "setting": "HDAC3; Conc. 5.08E-10 M, t1", "value": 965053}, {"measurement": "HDAC3 activity raw data (signal)", "setting": "HDAC3; Conc. 5.08E-10 M, t2", "value": 1022182}, {"measurement": "HDAC6 activity raw data (signal)", "setting": "HDAC6; Conc. 1.00E-05 M, t1", "value": 16305}, {"measurement": "HDAC6 activity raw data (signal)", "setting": "HDAC6; Conc. 1.00E-05 M, t2", "value": 24452}, {"measurement": "HDAC6 activity raw data (signal)", "setting": "HDAC6; Conc. 1.11E-06 M, t1", "value": 83235}, {"measurement": "HDAC6 activity raw data (signal)", "setting": "HDAC6; Conc. 1.11E-06 M, t2", "value": 80880}, {"measurement": "HDAC6 activity raw data (signal)", "setting": "HDAC6; Conc. 1.23E-07 M, t1", "value": 144589}, {"measurement": "HDAC6 activity raw data (signal)", "setting": "HDAC6; Conc. 1.23E-07 M, t2", "value": 161069}, {"measurement": "HDAC6 activity raw data (signal)", "setting": "HDAC6; Conc. 1.37E-08 M, t1", "value": 141422}, {"measurement": "HDAC6 activity raw data (signal)", "setting": "HDAC6; Conc. 1.37E-08 M, t2", "value": 164330}, {"measurement": "HDAC6 activity raw data (signal)", "setting": "HDAC6; Conc. 1.52E-09 M, t1", "value": 132716}, {"measurement": "HDAC6 activity raw data (signal)", "setting": "HDAC6; Conc. 1.52E-09 M, t2", "value": 164682}, {"measurement": "HDAC6 activity raw data (signal)", "setting": "HDAC6; Conc. 3.33E-06 M, t1", "value": 43855}, {"measurement": "HDAC6 activity raw data (signal)", "setting": "HDAC6; Conc. 3.33E-06 M, t2", "value": 31435}, {"measurement": "HDAC6 activity raw data (signal)", "setting": "HDAC6; Conc. 3.70E-07 M, t1", "value": 128192}, {"measurement": "HDAC6 activity raw data (signal)", "setting": "HDAC6; Conc. 3.70E-07 M, t2", "value": 121991}, {"measurement": "HDAC6 activity raw data (signal)", "setting": "HDAC6; Conc. 4.12E-08 M, t1", "value": 140481}, {"measurement": "HDAC6 activity raw data (signal)", "setting": "HDAC6; Conc. 4.12E-08 M, t2", "value": 177888}, {"measurement": "HDAC6 activity raw data (signal)", "setting": "HDAC6; Conc. 4.57E-09 M, t1", "value": 138901}, {"measurement": "HDAC6 activity raw data (signal)", "setting": "HDAC6; Conc. 4.57E-09 M, t2", "value": 160834}, {"measurement": "HDAC6 activity raw data (signal)", "setting": "HDAC6; Conc. 5.08E-10 M, t1", "value": 128639}, {"measurement": "HDAC6 activity raw data (signal)", "setting": "HDAC6; Conc. 5.08E-10 M, t2", "value": 162548}]}
